# Laboratory results as given in US20230210825A1, “METHODS AND COMPOSITIONS FOR TREATING SUBJECTS WITH METABOLIC DISORDERS AND CORONAVIRUS INFECTIONS” (CIRIUS THERAPEUTICS, INC., priority 2020, published 2023).
# Key:
# [1] = test system: carbonyl reductase; assay: Metabolism to the hydroxy metabolite
# [2] = test system: subjects with biopsy proven non-alcoholic steatohepatitis (NASH) with fibrosis and no cirrhosis; assay: EMMINENCE Phase 2b clinical trial; type: in vivo, human; conditions: for Peripheral Edema Present at Baseline / Isoleucine Baseline / Leucine Baseline / TotalBCAA Baseline / Valine Baseline / Mean HbA1c at Baseline: before treatment; for Isoleucine Visit 7 / Leucine Visit 7 / TotalBCAA Visit 7 / Valine Visit 7: 12-month endpoint; for HbA1c Placebo-corrected change from Baseline at 6 months: ▾ (decrease)
# Experimental: An interim analysis of the EMMINENCE Phase 2b trial was conducted in the first 328 subjects who reached their six-month follow-up visit. This study is a randomized, double-blinded study of three doses (62.5 mg 125 mg, or 250 mg) of MSDC-0602K or placebo given orally once daily to subjects with biopsy proven non-alcoholic steatohepatitis (NASH; a non-limiting example of a metabolic disorder) with fibrosis and no cirrhosis.
# The subjects included in this interim analysis had significant liver disease, as established by liver biopsy, with an average NAS at baseline of 5.3. […] Overall, baseline characteristics were well-balanced across treatment groups.
# [3] = 62.5 mg, N = 99, mean, baseline to 12-month endpoint
# [4] = 125 mg, mean, baseline to 12-month endpoint
# [5] = 250 mg, N = 101, mean, baseline to 12-month endpoint
# [6] = 1-year Phase 2b dose-ranging trial, fatty liver disease with or without type 2 diabetes
# [7] = all MSDC-0602K dose cohorts, interim analysis
# [8] = all subjects, six months, 125 mg and 250 mg doses
smiles,measurement,setting,value
COc1cccc(C(=O)COc2ccc(CC3SC(=O)NC3=O)cc2)c1 (centres unmarked) [MSDC-0602K],metabolism,[1],metabolized to its hydroxy metabolite (MSDC-0597) by a carbonyl reductase
same,Peripheral Edema Present at 6 months,[2]; 62.5 mg (n = 81),7.80%
same,Peripheral Edema Present at Baseline,[2]; 62.5 mg group (n = 81),13.60%
same,Isoleucine Visit 7,"[2]; 62.5 mg, N = 99, mean",61.47
same,Leucine Visit 7,"[2]; 62.5 mg, N = 99, mean",114.63
same,TotalBCAA Visit 7,"[2]; 62.5 mg, N = 99, mean",397.39
same,Valine Visit 7,"[2]; 62.5 mg, N = 99, mean",221.29
same,Isoleucine Change from Baseline,[2]; [3],−6.58
same,TotalBCAA Change from Baseline,[2]; [3],−30.07
same,Valine Change from Baseline,[2]; [3],−16.74
same,Isoleucine Baseline,"[2]; 62.5 mg, N = 99, mean",69.03
same,Leucine Baseline,"[2]; 62.5 mg, N = 99, mean",121.80
same,TotalBCAA Baseline,"[2]; 62.5 mg, N = 99, mean",430.03
same,Valine Baseline,"[2]; 62.5 mg, N = 99, mean",239.20
same,Peripheral Edema Present at 6 months,[2]; 125 mg (n = 84),13.50%
same,Peripheral Edema Present at Baseline,[2]; 125 mg group (n = 84),13.10%
same,Isoleucine Visit 7,"[2]; 125 mg, mean",60.06
same,Leucine Visit 7,"[2]; 125 mg, mean",115.95
same,TotalBCAA Visit 7,"[2]; 125 mg, mean",399.74
same,Valine Visit 7,"[2]; 125 mg, mean",223.73
same,Isoleucine Change from Baseline,[2]; [4],−2.92
same,Leucine Change from Baseline,[2]; [4],−0.60
same,TotalBCAA Change from Baseline,[2]; [4],−9.61
same,Isoleucine Baseline,"[2]; 125 mg, mean",62.55
same,Leucine Baseline,"[2]; 125 mg, mean",115.62
same,TotalBCAA Baseline,"[2]; 125 mg, mean",408.60
same,Valine Baseline,"[2]; 125 mg, mean",230.43
same,Peripheral Edema Present at 6 months,[2]; 250 mg (n = 85),11.10%
same,Peripheral Edema Present at Baseline,[2]; 250 mg group (n = 85),9.40%
same,Valine Visit 7,"[2]; 250 mg, N = 101, mean",212.52
same,Isoleucine Change from Baseline,[2]; [5],−10.10
same,Valine Change from Baseline,[2]; [5],−17.15
same,Isoleucine Baseline,"[2]; 250 mg, N = 101, mean",66.92
same,Leucine Baseline,"[2]; 250 mg, N = 101, mean",121.54
same,Valine Baseline,"[2]; 250 mg, N = 101, mean",232.15
same,edema,[2]; 1-year Phase 2b dose-ranging trial,without precipitation of edema
same,glycemic control,[2]; [6],improved glycemic control
same,insulin resistance,[2]; [6],reduced insulin resistance
same,Mean HbA1c at Baseline,"[2]; Type II diabetes subjects, 62.5 mg group",7.09%
same,HbA1c Placebo-corrected change from Baseline at 6 months,"[2]; Type II diabetes subjects, 62.5 mg, p 0.022",▾0.37
same,Mean HbA1c at Baseline,"[2]; Type II diabetes subjects, 125 mg group",6.90%
same,HbA1c Placebo-corrected change from Baseline at 6 months,"[2]; Type II diabetes subjects, 125 mg, p 0.001",▾0.55
same,Mean HbA1c at Baseline,"[2]; Type II diabetes subjects, 250 mg group",6.97%
same,HbA1c Placebo-corrected change from Baseline at 6 months,"[2]; Type II diabetes subjects, 250 mg, p 0.006",▾0.45
same,HbA1c,"[2]; Type II diabetes subjects, all doses",statistically significant improvement
same,HOMA-IR,[2]; [7],Statistically significant reductions
same,HbA1c,[2]; [7],Statistically significant reductions
same,HOMA-IR,[2]; [8],statistically significant improvements
same,HbA1c,[2]; [8],statistically significant improvements
same,fasting glucose,[2]; [8],statistically significant improvements
same,insulin levels,[2]; [8],statistically significant improvements
same,Adiponectin,[2]; all treatment cohorts,increased significantly in all treatment cohorts in a dose dependent manner
same,additional biomarkers of fibrosis such as hematocrit,[2]; interim analysis,trends for improvement
same,alkaline phosphatase,"[2]; interim analysis, six months",Improvements
same,bilirubin,"[2]; interim analysis, six months",Improvements
same,gamma GT,"[2]; interim analysis, six months",Improvements
same,lipids,"[2]; overall, interim analysis",neutral effect
same,"liver enzymes, including ALT and AST","[2]; six months compared to baseline, interim analysis",statistically significant reductions
same,C-Reactive Protein levels,[2]; two lowest doses,decrease
